Paper PMC10052652 (Molecules, 2023)
Values joined by “and” are separate entries in the source; they are usually repeats but may differ in a detail not shown here. Equal values may be shown once. Read-outs that look alike come from different tables or passages of the source.

How the values were obtained:
[1] = target: T1, superoxide dismutase (SOD) (Homo sapiens, UniProt P00441); format: biochemical; conditions: at 100 µM
[2] = ABTS radical cation scavenging assay; conditions: for ABTS Assay %: at 100 µM
Procedure: ABTS (2,2′-azinobis-3-ethylbenzothiazoline-6-sulfonate) assay
The radical scavenging capacity of antioxidants for the ABTS radical cation was evaluated following this method: ABTS was prepared by adding 7 mM solution of ABTS at pH 7.4 (5 mM NaH2PO4, 5 mM Na2HPO4, and 154 mM NaCl) with 2.5 mM potassium persulfate. The mixture was stored at room temperature for 16 h in the dark before use and prepared […]. Once diluted with persulfate buffer, the absorbance of the mixture yielded an absorbance value of 0.70 ± 0.05 units at 734 nm. Then, 20 µL of each tested sample was mixed with fresh ABTS solution (180 µL), then the absorbance was measured 6 min after the initial mixing. Ascorbic acid was used as a standard. The capacity of free radical scavenging was expressed as a percentage of the inhibition values. The percentage of inhibition is calculated using the same expression employed in the DPPH assay.

[3] = target: acetylcholinesterase (AChE) (Homo sapiens, UniProt P22303); format: biochemical; conditions: at 100 µM
[4] = target: T1, superoxide dismutase (SOD); experiment: biochemical
Procedure: Pyrogallol auto-oxidation due to oxygen in the air can be inhibited by an enzyme that is naturally present in the body: superoxide dismutase (SOD). Furthermore, variations in the pyrogallol auto-oxidation rate in the presence of SOD were evaluated. Tests were carried out in triplicate. The objective was to find an inhibitor of the auto-oxidation of pyrogallol in the presence of a SOD enzyme solution. Samples were tested at a concentration of 50 µg/mL, followed by incubation for 4 min at 25 °C. […] The self-oxidation of pyrogallol was evaluated in the absence of the enzyme. For this, 30 µL of pyrogallol was added to 120 µL of tris buffer (in place of the SOD) (pH 8.5), then followed by the same steps of incubating a positive control (without the molecule); this was performed in the presence of 5% of DMSO to evaluate the percentage of SOD inhibition activity on the auto-oxidation of pyrogallol.

α-amylase = target: T2, α-amylase (Homo sapiens, UniProt P04746); experiment: Anti-α-amylase activity (starch/DNS); conditions: for Anti α-Amylase %: at 100 µM
T2 sequence (P04746 16-511): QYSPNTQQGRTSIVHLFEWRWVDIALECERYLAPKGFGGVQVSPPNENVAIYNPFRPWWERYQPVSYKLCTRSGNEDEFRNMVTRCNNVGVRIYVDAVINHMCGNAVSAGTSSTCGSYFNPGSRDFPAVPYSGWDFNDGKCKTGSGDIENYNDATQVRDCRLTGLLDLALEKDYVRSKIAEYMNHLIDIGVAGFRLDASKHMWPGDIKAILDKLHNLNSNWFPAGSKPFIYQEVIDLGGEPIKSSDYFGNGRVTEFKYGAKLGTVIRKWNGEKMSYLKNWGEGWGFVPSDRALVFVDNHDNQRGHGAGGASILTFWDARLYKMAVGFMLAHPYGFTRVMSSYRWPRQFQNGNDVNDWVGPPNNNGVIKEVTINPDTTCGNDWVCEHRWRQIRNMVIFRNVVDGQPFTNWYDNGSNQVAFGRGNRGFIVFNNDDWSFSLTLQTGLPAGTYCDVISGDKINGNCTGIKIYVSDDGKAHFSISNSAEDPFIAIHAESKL
Procedure: The α-amylase inhibitory activity (%) value was defined as the percentage decrease in the maltose production rate over the control. […] After 15 min, this mixture was removed from the water bath and diluted with 900 µL of distilled water. The anti-α-amylase activity was determined by measuring the absorbance at 540 nm. Blank incubations were determined as the absorbance produced by samples where the enzyme was replaced with a buffer solution. […] The IC50 values were calculated from the mean values of the percentage of α--amylase inhibition data, determined in triplicate.

xanthine oxidase (XOD) = xanthine oxidase (XOD) (Homo sapiens, UniProt P47989); experiment: biochemical
Procedure: Anti-xanthine oxidase activity was assayed spectrophotometrically under aerobic conditions. First, 50 µL (50 µg/mL) of samples were added to 60 µL of phosphate buffer (pH 7.5) and 30 µL of xanthine oxidase enzyme solution (0.01 units/mL in phosphate buffer; pH 7.5). After pre-incubation at 25 °C for 15 min, the reaction was initiated by the addition of 60 µL of xanthine substrate solution (prepared in the same buffer). The assay mixture was incubated at 25 °C for 5 min. […] The assay was performed in triplicate. […] Tests were carried out in triplicate.

SKOV-3 cells = experiment: Cytotoxic activity, MTT assay, SKOV-3; format: cell-based, human
MCF7 cells = experiment: Cytotoxic activity, MTT assay, MCF7; format: cell-based, human
Procedure: Optical density was measured at 540 nm. All tests were established in triplicate.

IGROV-1 cells = experiment: Cytotoxic activity, MTT assay, IGROV-1; conditions: for Cytotoxic activity against IGROV-1 (in words): at 100 µM; for IC50: Homo sapiens, IGROV-1, read-out: IC50 IGROV-1
Procedure: The cancer cell lines used in this study were HCT116 (colorectal carcinoma), IGROV1 (ovarian cancer), OVCAR3 (ovarian cancer), and MCF7 (mammary gland/breast cancer). […] Cell lines were maintained in culture and were incubated at 37 °C in an incubator with 5% CO2 in a humidified atmosphere. All tests were established at 80% of confluence, and viability was estimated with a trypan blue exclusion assay.
The cytotoxic activities of molecules against cancer cell lines were evaluated using an MTT assay. The MTT colorimetric assay was performed using 96-well plates. Cells were seeded in a 96-well plate, at a concentration of 10 × 10^3 cells/well for HCT116 and 12 × 10^3 cells/well for MCF7, IGROV1, and OVAR. Adherent cells were dispatched and incubated at 37 °C overnight in a 5% CO2-enriched atmosphere. Cells in the exponential growth phase were incubated at 37 °C for 72 h, with each tested sample at 50 µg/mL. After that, the medium was removed, and cells were treated with 50 µL of 3-(4,5-dimethylthazolk-2-yl)-2,5-diphenyl tetrazolium bromide (MTT) solution (3 mg/mL in PBS) at 37 °C for 20 to 40 min. To dissolve the […], we added 80 µL of 100% DMSO. Optical density was measured at 540 nm. All tests were established in triplicate. The anti-cancer effect of samples was estimated in terms of growth inhibition percentage.

[5] = Homo sapiens, SK-OV-3, 72 h, read-out: IC50 SKOV-3, MTT, 72 h

xanthine oxidase (XOD), sequence (P47989 whole entry, species assumed): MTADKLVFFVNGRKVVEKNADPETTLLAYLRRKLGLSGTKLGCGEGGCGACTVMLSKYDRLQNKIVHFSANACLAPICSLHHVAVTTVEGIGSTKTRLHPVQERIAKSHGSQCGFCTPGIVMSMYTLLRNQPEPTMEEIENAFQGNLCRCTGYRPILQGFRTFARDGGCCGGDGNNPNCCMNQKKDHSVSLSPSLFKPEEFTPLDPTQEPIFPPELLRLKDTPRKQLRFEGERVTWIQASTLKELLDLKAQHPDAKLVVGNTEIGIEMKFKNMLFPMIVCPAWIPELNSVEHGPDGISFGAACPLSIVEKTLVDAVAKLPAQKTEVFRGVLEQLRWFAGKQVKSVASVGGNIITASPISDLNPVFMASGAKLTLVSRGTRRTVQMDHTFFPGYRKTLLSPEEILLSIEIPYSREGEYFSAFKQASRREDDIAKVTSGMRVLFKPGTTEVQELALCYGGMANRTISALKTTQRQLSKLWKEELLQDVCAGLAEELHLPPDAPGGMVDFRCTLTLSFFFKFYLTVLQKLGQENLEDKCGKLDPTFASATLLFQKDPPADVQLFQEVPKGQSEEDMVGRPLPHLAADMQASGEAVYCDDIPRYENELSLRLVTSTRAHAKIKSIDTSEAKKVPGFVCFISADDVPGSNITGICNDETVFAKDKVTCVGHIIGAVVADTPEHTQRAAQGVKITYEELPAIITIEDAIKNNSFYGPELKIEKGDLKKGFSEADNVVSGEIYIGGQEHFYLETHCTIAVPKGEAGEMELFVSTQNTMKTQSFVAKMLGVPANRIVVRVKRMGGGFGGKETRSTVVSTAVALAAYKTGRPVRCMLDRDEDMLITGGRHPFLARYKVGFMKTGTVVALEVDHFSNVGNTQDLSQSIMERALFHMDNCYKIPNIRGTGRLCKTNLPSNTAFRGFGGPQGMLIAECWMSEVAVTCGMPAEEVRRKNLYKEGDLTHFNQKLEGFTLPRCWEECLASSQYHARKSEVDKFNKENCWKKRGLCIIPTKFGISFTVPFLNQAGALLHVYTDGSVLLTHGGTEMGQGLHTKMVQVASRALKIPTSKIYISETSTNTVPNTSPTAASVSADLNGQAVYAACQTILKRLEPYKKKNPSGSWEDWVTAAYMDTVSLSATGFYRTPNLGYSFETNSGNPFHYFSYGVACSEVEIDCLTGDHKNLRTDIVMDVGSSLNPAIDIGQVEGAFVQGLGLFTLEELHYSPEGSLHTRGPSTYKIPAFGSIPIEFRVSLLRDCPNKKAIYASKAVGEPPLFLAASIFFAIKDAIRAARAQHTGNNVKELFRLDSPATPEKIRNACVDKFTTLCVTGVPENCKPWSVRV
acetylcholinesterase (AChE), sequence (P22303 32-614, species assumed): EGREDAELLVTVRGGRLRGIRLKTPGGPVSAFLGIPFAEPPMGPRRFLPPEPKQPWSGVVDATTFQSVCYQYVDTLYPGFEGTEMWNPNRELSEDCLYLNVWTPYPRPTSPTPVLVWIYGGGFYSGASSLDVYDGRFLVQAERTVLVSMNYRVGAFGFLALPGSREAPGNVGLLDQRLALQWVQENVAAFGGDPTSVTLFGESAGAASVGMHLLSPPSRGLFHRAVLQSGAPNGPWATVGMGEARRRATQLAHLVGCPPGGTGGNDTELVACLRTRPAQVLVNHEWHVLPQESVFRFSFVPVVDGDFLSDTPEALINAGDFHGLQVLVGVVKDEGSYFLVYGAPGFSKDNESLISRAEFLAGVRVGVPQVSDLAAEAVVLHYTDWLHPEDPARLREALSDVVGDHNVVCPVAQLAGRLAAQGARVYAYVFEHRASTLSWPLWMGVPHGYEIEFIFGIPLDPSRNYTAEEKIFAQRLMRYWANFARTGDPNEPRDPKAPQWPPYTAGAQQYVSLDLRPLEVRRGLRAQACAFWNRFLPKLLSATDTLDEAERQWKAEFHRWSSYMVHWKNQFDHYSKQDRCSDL
T1 sequence (P00441 whole entry): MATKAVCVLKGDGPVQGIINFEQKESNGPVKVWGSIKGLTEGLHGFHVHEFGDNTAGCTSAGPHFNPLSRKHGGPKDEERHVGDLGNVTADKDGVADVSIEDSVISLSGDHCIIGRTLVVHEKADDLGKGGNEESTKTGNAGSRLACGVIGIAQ

SMILES | Anti SOD % [1] | IC50 [2] [µM] | Anti ACHE % [3] [%] | IC50 ([4]; Anti SOD IC50) [µM] | IC50 ([4]; read-out: Anti SOD IC50) [µM] | IC50 (α-amylase) [µM] | Anti α-Amylase % (α-amylase) [%] | IC50 (xanthine oxidase (XOD); read-out: Anti XOD IC50) [µM] | IC50 (SKOV-3 cells; [5]) [µM] | IC50 (MCF7 cells; Homo sapiens, MCF7, 72 h) [µM] | Cytotoxic activity against IGROV-1 (in words) (IGROV-1 cells) | IC50 (xanthine oxidase (XOD)) [µM] | ABTS Assay % [2] [%] | IC50 (SKOV-3 cells; read-out: IC50 SKOV-3, MTT, 72 h) [µM] | IC50 (IGROV-1 cells) [µM] | IC50 (MCF7 cells; 72 h) [µM]
O=c1cc(-c2ccccc2)oc2cc(O)c(O)c(O)c12 [Molecule M7, 5,6,7-trihydroxyflavone] | 71.2 ± 2.3% | 6.3 ± 0.1 | 62.0 ± 1.9 | 36.5 ± 1.2 | 31.5 ± 0.5 | 3.4 ± 0.1 | 96.9 ± 1.7 | > 100 | 15.6 ± 0.1 | 33.1 ± 1.4 |  |  |  |  |  | 
O=c1cc(-c2ccccc2)oc2cc(O)cc(O)c12 [Molecule M1, 5,7-dihydroxyflavone] | 41.5 ± 1.8% | > 50 | 45.8 ± 1.3 | > 100 |  | 36.6 ± 0.2 | 59.7 ± 2.0 |  | > 50 | 35.9 ± 0.8 | most active | > 100 |  |  |  | 
O=c1cc(-c2ccccc2)oc2cc(O)ccc12 [Molecule M5, 7-hydroxyflavone] | 74.3 ± 3.1% and 74.3 ± 3.02% | > 100 |  |  | 36.5 ± 1.2 | 1.2 ± 0.1 | 90.3 ± 3.2 | > 100 | > 50 | > 50 | most active |  | 5.9 ± 0.4 |  |  | 
O=c1cc(-c2ccccc2)oc2ccc(O)cc12 [Molecule M3, 6-hydroxyflavone] | 54.8 ± 3.2% | 24 ± 0.1 |  |  | > 50 | 10.9 ± 0.1 | 90.3 ± 3.2 | > 100 | > 100 | > 50 | most active |  |  | > 50 |  | 
O=c1cc(-c2cccc(O)c2)oc2ccc3ccccc3c12 [Molecule M9, 3′-hydroxy-b-naphthoflavone] | 19.8 ± 2.9% | > 100 | 47.9 ± 4.0 |  | > 100 | 2 ± 0.2 | 86.6 ± 2.3 | > 100 | > 50 | > 50 | not active |  |  |  | > 100 | 
O=c1cc(-c2ccccc2)oc2cccc(O)c12 [Molecule M4, 5-hydroxyflavone] | 25.9 ± 2.5% | > 100 |  | > 100 |  | 37.9 ± 0.8 | 58.4 ± 1.4 |  | > 50 | > 50 |  | > 100 | 16.0 ± 1.5 |  |  | > 100
O=c1cc(-c2cc(O)cc(O)c2)oc2ccccc12 [Molecule M8, 3′,5′-dihydroxyflavone] | 52.3 ± 0.9% | 7.3 ± 0.1 | 49.3 ± 2.2 |  | > 50 | 14.9 ± 0.3 | 104.8 ± 3.5 | 2.3 ± 0.1 | > 50 | 40.4 ± 0.7 | most active |  |  |  |  | 
O=c1cc(-c2cccc(O)c2)oc2cc(O)ccc12 [Molecule M13, 7,3′-dihydroxyflavone] | 56.6 ± 1.7% | 24.5 ± 0.1 | 63.9 ± 3.3 |  | > 50 | 1.4 ± 0.1 | 91.7 ± 4.9 | 0.9 ± 0.2 | 42.1 ± 0.7 | 38.5 ± 1.2 | most active |  |  |  |  | 
COc1ccc(-c2oc3c(CC=C(C)C)c(O[C@@H]4O[C@H](CO)[C@@H](O)[C@H](O)[C@H]4O)cc(O)c3c(=O)c2O[C@@H]2O[C@@H](C)[C@H](O)[C@@H](O)[C@H]2O)cc1 [Molecule M2, Icariin] | 61.7 ± 1.1% | 20.1 ± 0.1 | 19.3 ± 0.3 |  | > 50 | 14.1 ± 2.1 | 58.1 ± 2.2 | > 100 | > 50 | > 100 | not active |  |  |  | > 100 | 
COc1cc(-c2cc(=O)c3ccc4c(O)cccc4c3o2)cc(OC)c1OC [Molecule M18, 7-hydroxy-3′,4′,5′-trimethoxy-α-naphthoflavone] | 32.7 ± 3.9% | > 50 | 43.3 ± 1.8 |  | > 100 | > 100 |  | > 100 | 37.3 ± 1 | > 50 | not active |  |  |  | > 100 | 
